Results from patent US20120201749A1, “NP-1 Antagonists and Their Therapeutic Use” (priority 2009, published 2012).

Molecular target: NP-1 (Homo sapiens, UniProt O14786)
Assay: Biotinylated-VEGF-A165 (bt-VEGF-A165) binding to NP-1
Settings: for inhibition at 3 µM: read-out: Screen (% inhibition at 3 μM); for inhibition at 30 µM / Screen (% inhibition at 30 μM): 30 μM compound; for inhibition at 30 µM: read-out: Screen (% inhibition at 30 μM)
Method: Human prostate carcinoma DU145 cells were cultured in growth medium (RPMI 1640 containing 10% FBS and L-glutamine). DU145 cells were seeded at the density of 2×10^4 cells per well (96-well plates) in 0.1 ml growth medium and transfected with adenovirus vectors containing the full-length open-reading frame of human NP-1. The Ad.NP-1-transfected cells grew for 2 days prior to a binding assay.
Confluent Ad.NP-1-transfected cells in 96-well plates were washed twice with phosphate-buffered saline (PBS). The various concentrations of compounds diluted in binding medium (Dulbecco's modified Eagle's medium, 25 mM HEPES pH 7.3 containing 0.1% BSA) were added, followed by addition of 2 nM of bt-VEGF-A165. After 2 h of incubation at room temperature, the medium was aspirated and washed three times with PBS. The bound bt-VEGF-A165 to NP-1 was detected by streptavidin-horseradish peroxidase conjugates and the enzyme substrate, and measured using a Tecan Genios plate reader at A450 nm with a reference wavelength at A595 nm. Non-specific binding was determined in the presence of 100-fold excess unlabelled VEGF-A165.
The 96-well plates were pre-coated with NP1 protein at 3 μg/ml overnight at 4° C. On the following day, the plates were treated with blocking buffer (PBS containing 1% BSA) and washed three times with wash buffer (PBS containing 0.1% Tween-20). The various concentrations of compounds diluted in PBS containing 1% DMSO were added, followed by addition of 0.25 nM of bt-VEGF-A165. After 2 h of incubation at room temperature, the plates were washed three times with wash buffer. The bound bt-VEGF-A165 to NP-1 was detected by streptavidin-horseradish peroxidase conjugates and the enzyme substrate, and measured using a Tecan Genios plate reader at A450 nm with a reference wavelength at A595 nm. Nonspecific binding was determined in the absence of NP-1 coated wells of the plates.

Sequence of NP-1 (O14786 22-923): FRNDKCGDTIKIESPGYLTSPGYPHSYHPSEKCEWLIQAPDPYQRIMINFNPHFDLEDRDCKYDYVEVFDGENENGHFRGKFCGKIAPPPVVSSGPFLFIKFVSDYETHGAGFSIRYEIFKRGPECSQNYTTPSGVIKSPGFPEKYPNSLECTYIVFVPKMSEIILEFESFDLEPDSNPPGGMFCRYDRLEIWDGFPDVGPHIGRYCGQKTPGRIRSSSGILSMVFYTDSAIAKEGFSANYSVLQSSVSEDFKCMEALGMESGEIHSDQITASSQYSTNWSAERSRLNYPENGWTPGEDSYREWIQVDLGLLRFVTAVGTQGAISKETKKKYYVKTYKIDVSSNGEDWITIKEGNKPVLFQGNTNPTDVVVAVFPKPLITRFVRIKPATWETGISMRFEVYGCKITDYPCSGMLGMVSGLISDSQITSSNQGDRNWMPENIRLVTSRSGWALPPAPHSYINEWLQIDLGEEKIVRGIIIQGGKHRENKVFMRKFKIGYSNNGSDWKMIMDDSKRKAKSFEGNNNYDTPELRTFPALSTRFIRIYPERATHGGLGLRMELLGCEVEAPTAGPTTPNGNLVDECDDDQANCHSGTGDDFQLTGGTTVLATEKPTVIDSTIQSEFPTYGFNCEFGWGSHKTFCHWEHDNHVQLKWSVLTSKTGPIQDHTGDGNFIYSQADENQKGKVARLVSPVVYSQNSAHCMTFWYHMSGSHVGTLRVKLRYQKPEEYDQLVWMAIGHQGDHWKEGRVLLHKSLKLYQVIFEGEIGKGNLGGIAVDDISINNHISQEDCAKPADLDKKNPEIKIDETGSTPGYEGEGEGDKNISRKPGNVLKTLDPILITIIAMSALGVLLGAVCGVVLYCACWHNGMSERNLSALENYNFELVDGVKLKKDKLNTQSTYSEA

| IC50 [µM] | inhibition at 3 µM (3 μM compound) [%] | inhibition at 30 µM [%] | Screen (% inhibition at 30 μM) [%] | Screen (% inhibition at 3 μM) (3 μM compound, 3 µM) [%] | SMILES |
| --- | --- | --- | --- | --- | --- |
| 0.216 | 96 | 100 |  |  | N=C(N)NCCC[C@H](NC(=O)c1sccc1NS(=O)(=O)c1cc(-c2cccc(CN3CCN(c4ccncc4)CC3)c2)cc2c1OCC2)C(=O)O [Compound 28, (S)-5-Guanidino-2-[(3-{5-[3-(4-pyridin-4-yl-piperazin-1-ylmethyl)-phenyl]-2,3-dihydro-benzofuran-7-sulfonylamino}-thiophene-2-carbonyl)-amino]-pentanoic acid] |
| 0.04 | 98 | 99 |  |  | N=C(N)NCCC[C@H](NC(=O)c1sccc1NS(=O)(=O)c1cccc(NCc2csc(N3CCN(c4ccncc4)CC3)n2)c1)C(=O)O [Compound 57, (S)-5-guanidino-2-{[3-(3-{[2-(4-pyridin-4-yl-piperazin-1-yl)-thiazol-4-ylmethyl]-amino}-benzenesulfonylamino)-thiophene-2-carbonyl]-amino}-pentanoic acid] |
|  | 50 | 94 |  |  | N=C(N)NCCC[C@H](NC(=O)c1sccc1NS(=O)(=O)c1cc(-c2cccc(CN3CCC(N)CC3)c2)cc2c1OCC2)C(=O)O [Compound 34, (S)-2-[(3-{5-[3-(4-Amino-piperidin-1-ylmethyl)-phenyl]-2,3-dihydro-benzofuran-7-sulfonylamino}-thiophene-2-carbonyl)-amino]-5-guanidino-pentanoic acid] |
| 0.003 | 95 |  |  |  | COC(=O)CC1CCN(Cc2ccccc2-c2cc3c(c(S(=O)(=O)Nc4ccsc4C(=O)N[C@@H](CCCNC(=N)N)C(=O)O)c2)OCC3)CC1 [Compound 6, (S)-5-Guanidino-2-[(3-{5-[2-(4-methoxycarbonylmethyl-piperidin-1-ylmethyl)-phenyl]-2,3-dihydro-benzofuran-7-sulfonylamino}-thiophene-2-carbonyl)-amino]-pentanoic acid] |
| 0.525 | 71 |  |  |  | N=C(N)NCCC[C@H](NC(=O)c1sccc1NS(=O)(=O)c1cc(-c2cccc(CN3CCN(CCO)CC3)c2)cc2c1OCC2)C(=O)O [Compound 55, (S)-5-Guanidino-2-{[3-(5-{3-[4-(2-hydroxy-ethyl)-piperazin-1-ylmethyl]-phenyl}-2,3-dihydro-benzofuran-7-sulfonylamino)-thiophene-2-carbonyl]-amino}-pentanoic acid] |
| 0.32 | 84 | 98 |  |  | Cn1cncc1CNCc1cccc(-c2cc3c(c(S(=O)(=O)Nc4ccsc4C(=O)N[C@@H](CCCNC(=N)N)C(=O)O)c2)OCC3)c1 [Compound 36, (S)-5-Guranidino-2-({3-[5-(3-{[(3-methyl-3H-imidazol-4-ylmethyl)-amino]-methyl}-phenyl)-2,3-dihydro-benzofuran-7-sulfonylamino]-thiophene-2-carbonyl}-amino)-pentanoic acid] |
|  | 52 |  |  |  | Cc1[nH]ncc1CCCNCc1cccc(-c2cc3c(c(S(=O)(=O)Nc4ccsc4C(=O)N[C@@H](CCCNC(=N)N)C(=O)O)c2)OCC3)c1 [Compound 41, (S)-5-Guanidino-2-({3-[5-(3-{[3-(5-methyl-1H-pyrazol-4-yl)-propylamino]-methyl}-phenyl)-2,3-dihydro-benzofuran-7-sulfonylamino]-thiophene-2-carbonyl}-amino)-pentanoic acid] |
|  | 56 |  | 94 |  | N=C(N)NCCC[C@H](NC(=O)c1sccc1NS(=O)(=O)c1cc(-c2ccccc2CN2CCN(Cc3ccncc3)CC2)cc2c1OCC2)C(=O)O [Compound 17, (S)-5-Guanidino-2-[(3-{5-[2-(4-pyridin-4-ylmethyl-piperazin-1-ylmethyl)-phenyl]-2,3-dihydro-benzofuran-7-sulfonylamino}-thiophene-2-carbonyl)-amino]-pentanoic acid] |
| 0.365 | 81 | 100 |  |  | N=C(N)NCCC[C@H](NC(=O)c1sccc1NS(=O)(=O)c1cc(-c2cccc(CN3CCNCC3)c2)cc2c1OCC2)C(=O)O [Compound 33, (S)-5-Guanidino-2-({3-[5-(3-piperazin-1-ylmethyl-phenyl)-2,3-dihydro-benzofuran-7-sulfonylamino]-thiophene-2-carbonyl}-amino)-pentanoic acid] |
| 2 |  | 97 |  |  | N=C(N)NCCC[C@H](NC(=O)c1sccc1NS(=O)(=O)c1cc(-c2ccccc2CN2CCN(c3cccnc3)CC2)cc2c1OCC2)C(=O)O [Compound 10, (S)-5-Guanidino-2-[(3-{5-[2-(4-pyridin-3-yl-piperazin-1-ylmethyl)-phenyl]-2,3-dihydro-benzofuran-7-sulfonylamino}-thiophene-2-carbonyl)-amino]-pentanoic acid] |
|  | 57 | 89 |  |  | N=C(N)NCCC[C@H](NC(=O)c1sccc1NS(=O)(=O)c1cccc(NCc2csc(C3CCNCC3)n2)c1)C(=O)O [Compound 56, (S)-5-guanidino-2-[(3-{3-[(2-piperidin-4-yl-thiazol-4-ylmethyl)-amino]-benzenesulfonylamino}-thiophene-2-carbonyl)-amino]-pentanoic acid] |
| 0.691 | 80 | 100 |  |  | N=C(N)NCCC[C@H](NC(=O)c1sccc1NS(=O)(=O)c1cc(-c2cccc(CN3CCN(Cc4ccncc4)CC3)c2)cc2c1OCC2)C(=O)O [Compound 30, (S)-5-Guanidino-2-[(3-{5-[3-(4-pyridin-4-ylmethyl-piperazin-1-ylmethyl)-phenyl]-2,3-dihydro-benzofuran-7-sulfonylamino}-thiophene-2-carbonyl)-amino]-pentanoic acid] |
|  | 37 | 89 |  |  | N=C(N)NCCC[C@H](NC(=O)c1sccc1NS(=O)(=O)c1cccc(NCc2cnn(CCN3CCN(c4ccccn4)CC3)c2)c1)C(=O)O [Compound 68] |
| 0.072 | 80 |  |  |  | N=C(N)NCCC[C@H](NC(=O)c1sccc1NS(=O)(=O)c1cc(-c2cccc(CN3CCC(CC(=O)O)CC3)c2)cc2c1OCC2)C(=O)O [Compound 4, (S)-2-[(3-{5-[3-(4-Carboxymethyl-piperidin-1-ylmethyl)-phenyl]-2,3-dihydro-benzofuran-7-sulfonylamino}-thiophene-2-carbonyl)-amino]-5-guanidino-pentanoic acid] |
|  | 44 | 90 |  |  | Cc1cc(CNc2nc(CNc3cccc(S(=O)(=O)Nc4ccsc4C(=O)N[C@@H](CCCNC(=N)N)C(=O)O)c3)cs2)no1 [Compound 67] |
| 0.295 |  |  | 93 | 68 | N=C(N)NCCC[C@H](NC(=O)c1sccc1NS(=O)(=O)c1cc(-c2cccc(CN3CCC(N4CCOCC4)CC3)c2)cc2c1OCC2)C(=O)O [Compound 38, (S)-5-Guanidino-2-[(3-{5-[3-(4-morpholin-4-yl-piperidin-1-ylmethyl)-phenyl]-2,3-dihydro-benzofuran-7-sulfonylamino}-thiophene-2-carbonyl)-amino]-pentanoic acid] |
|  | 82 |  |  |  | N=C(N)NCCC[C@H](NC(=O)c1sccc1NS(=O)(=O)c1cc(-c2cccc(CNCc3ccc(O)nc3)c2)cc2c1OCC2)C(=O)O [Compound 43, (S)-5-Guanidino-2-({3-[5-(3-{[(6-hydroxy-pyridin-3-ylmethyl)-amino]-methyl}-phenyl)-2,3-dihydro-benzofuran-7-sulfonylamino]-thiophene-2-carbonyl}-amino)-pentanoic acid] |
|  | 70 |  |  |  | N=C(N)NCCC[C@H](NC(=O)c1sccc1NS(=O)(=O)c1cc(-c2ccccc2CNCc2cn[nH]c2)cc2c1OCC2)C(=O)O [Compound 54, (S)-5-Guanidino-2-({3-[5-(2-{[(1H-pyrazol-4-ylmethyl)-amino]-methyl}-phenyl)-2,3-dihydro-benzofuran-7-sulfonylamino]-thiophene-2-carbonyl}-amino)-pentanoic acid] |
|  | 62 | 97 |  |  | N=C(N)NCCC[C@H](NC(=O)c1sccc1NS(=O)(=O)c1cc(-c2ccccc2CN2CCN(c3ccncc3)CC2)cc2c1OCC2)C(=O)O [Compound 15, (S)-5-Guanidino-2-[(3-{5-[2-(4-pyridin-4-yl-piperazin-1-ylmethyl)-phenyl]-2,3-dihydro-benzofuran-7-sulfonylamino}-thiophene-2-carbonyl)-amino]-pentanoic acid] |
|  | 82 |  |  |  | Cc1ccc(NCCCNCc2ccccc2-c2cc3c(c(S(=O)(=O)Nc4ccsc4C(=O)N[C@@H](CCCNC(=N)N)C(=O)O)c2)OCC3)nc1 [Compound 50, (S)-5-Guanidino-2-({3-[5-(2-{[3-(5-methyl-pyridin-2-ylamino)-propylamino]-methyl}-phenyl)-2,3-dihydro-benzofuran-7-sulfonylamino]-thiophene-2-carbonyl}-amino)-pentanoic acid] |
